{"source": "patent USRE50319E1", "about": "“Compounds and methods for treating cancer” (Dana-Farber Cancer Institute, Inc., priority 2017, dated 2025)", "key": {"[1]": {"biological_target": "POLQ (Homo sapiens, UniProt O75417)", "sequence (O75417 whole entry)": "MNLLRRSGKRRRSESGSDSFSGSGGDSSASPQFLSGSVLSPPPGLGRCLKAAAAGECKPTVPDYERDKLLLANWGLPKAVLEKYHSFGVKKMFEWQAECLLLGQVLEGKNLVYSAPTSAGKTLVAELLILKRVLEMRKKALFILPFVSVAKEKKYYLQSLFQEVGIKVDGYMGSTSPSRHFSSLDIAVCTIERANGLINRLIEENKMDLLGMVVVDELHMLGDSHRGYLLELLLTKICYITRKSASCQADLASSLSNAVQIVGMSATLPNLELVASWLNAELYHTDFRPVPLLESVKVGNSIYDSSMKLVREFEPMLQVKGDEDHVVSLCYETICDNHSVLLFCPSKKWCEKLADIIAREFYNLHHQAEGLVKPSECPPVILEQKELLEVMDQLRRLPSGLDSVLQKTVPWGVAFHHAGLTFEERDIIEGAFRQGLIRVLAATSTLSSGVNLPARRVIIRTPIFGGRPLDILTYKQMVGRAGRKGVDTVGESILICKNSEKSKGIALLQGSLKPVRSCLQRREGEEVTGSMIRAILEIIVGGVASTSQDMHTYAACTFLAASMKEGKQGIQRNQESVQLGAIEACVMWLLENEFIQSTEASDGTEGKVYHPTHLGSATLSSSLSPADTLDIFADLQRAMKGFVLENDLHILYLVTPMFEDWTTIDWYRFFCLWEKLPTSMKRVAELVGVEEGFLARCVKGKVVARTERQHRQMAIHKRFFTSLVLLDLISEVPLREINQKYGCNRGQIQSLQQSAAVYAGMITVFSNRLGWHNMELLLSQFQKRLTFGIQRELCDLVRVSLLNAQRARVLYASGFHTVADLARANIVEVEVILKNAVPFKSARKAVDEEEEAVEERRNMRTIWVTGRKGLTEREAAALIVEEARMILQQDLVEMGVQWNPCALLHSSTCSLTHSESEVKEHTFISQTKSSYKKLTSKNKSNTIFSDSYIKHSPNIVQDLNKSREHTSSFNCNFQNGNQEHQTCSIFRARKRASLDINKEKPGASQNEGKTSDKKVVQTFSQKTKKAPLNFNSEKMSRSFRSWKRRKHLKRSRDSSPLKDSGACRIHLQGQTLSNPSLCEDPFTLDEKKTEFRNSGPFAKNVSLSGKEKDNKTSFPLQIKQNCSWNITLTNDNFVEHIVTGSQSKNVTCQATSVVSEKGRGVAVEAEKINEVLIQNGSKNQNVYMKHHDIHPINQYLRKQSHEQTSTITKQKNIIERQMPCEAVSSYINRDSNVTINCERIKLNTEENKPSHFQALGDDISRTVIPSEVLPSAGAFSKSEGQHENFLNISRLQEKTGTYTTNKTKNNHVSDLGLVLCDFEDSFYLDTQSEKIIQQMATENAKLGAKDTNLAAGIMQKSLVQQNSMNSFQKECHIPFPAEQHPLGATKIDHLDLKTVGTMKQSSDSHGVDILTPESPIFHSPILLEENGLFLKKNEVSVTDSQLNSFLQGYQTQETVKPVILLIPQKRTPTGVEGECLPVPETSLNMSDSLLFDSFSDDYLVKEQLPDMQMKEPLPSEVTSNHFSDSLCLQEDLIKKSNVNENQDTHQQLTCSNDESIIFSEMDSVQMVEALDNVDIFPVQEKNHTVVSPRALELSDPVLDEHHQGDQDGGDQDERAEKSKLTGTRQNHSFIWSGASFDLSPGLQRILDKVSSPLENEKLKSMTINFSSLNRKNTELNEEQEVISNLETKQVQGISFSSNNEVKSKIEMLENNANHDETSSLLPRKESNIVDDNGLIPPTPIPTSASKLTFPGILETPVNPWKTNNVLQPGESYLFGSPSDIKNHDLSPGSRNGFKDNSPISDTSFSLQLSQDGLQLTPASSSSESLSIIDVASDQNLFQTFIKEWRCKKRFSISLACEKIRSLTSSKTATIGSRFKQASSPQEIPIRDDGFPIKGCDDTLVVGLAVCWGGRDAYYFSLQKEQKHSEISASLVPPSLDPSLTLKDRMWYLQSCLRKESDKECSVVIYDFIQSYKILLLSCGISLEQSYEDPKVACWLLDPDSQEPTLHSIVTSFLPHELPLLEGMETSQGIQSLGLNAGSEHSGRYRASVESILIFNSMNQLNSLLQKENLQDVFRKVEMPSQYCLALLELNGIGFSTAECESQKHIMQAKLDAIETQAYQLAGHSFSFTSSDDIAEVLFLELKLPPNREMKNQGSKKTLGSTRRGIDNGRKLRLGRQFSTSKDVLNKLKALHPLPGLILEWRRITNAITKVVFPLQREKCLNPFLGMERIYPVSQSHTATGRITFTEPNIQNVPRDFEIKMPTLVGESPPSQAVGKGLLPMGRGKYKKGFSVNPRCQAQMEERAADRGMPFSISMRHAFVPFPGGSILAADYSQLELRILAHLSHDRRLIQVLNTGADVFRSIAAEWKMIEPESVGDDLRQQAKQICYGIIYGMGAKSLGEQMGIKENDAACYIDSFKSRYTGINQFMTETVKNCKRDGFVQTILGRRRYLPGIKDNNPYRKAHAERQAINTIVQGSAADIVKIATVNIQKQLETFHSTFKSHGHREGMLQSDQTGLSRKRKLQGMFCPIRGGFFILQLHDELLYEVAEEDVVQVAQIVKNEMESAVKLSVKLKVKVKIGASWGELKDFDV", "assay": "γ-32P-ATP based radiometric ATPase assay", "format": "biochemical", "settings": "for inhibition of POLQ (ATPase) activity: FIG. 2B radiometric ATPase assay", "protocol": "FIG. 2C is a bar plot showing quantification of the radiometric ATPase assay showing in FIG. 2B. SMARCAL1 was used as a control ATPase to identify inhibitors that show specificity to POLQ.\n100 μM novobiocin was used in the assay. MTX=Mitoxantrone; SUR=Suramin sodium salt; NVB=novobiocin; AUR=Aurintricarboxylic acid; VAND=vandetanib (EGFR inhibitor, negative control)."}, "[2]": {"test_system": "Alt-EJ repair pathway", "assay": "GFP reporter assay using EJ2 repair substrate (Alt-EJ)", "format": "cell-based", "protocol": "PARP inhibitor and ATM inhibitor were used as positive controls.\n(§1) 10 μM concentration of each tested compound was used in the assay. Mitoxantrone and VAND kill cells.\n(§2) 50 μM of each tested compound was used in the assay."}, "[3]": {"test_system": "BRCA1-deficient (HR-deficient) tumor cells", "assay": "Rapid Cell Titer Glo assay", "format": "cell-based"}, "[4]": {"test_system": "homologous recombination", "assay": "Homologous recombination repair assay", "format": "cell-based", "protocol": "as §1, §2"}, "[5]": {"test_system": "BRCA1-deficient tumor cells", "assay": "Clonogenic survival assay, BRCA1-deficient tumor cells", "format": "cell-based", "settings": "FIG. 4, versus isogenic BRCA1-proficient cell line"}, "[6]": {"test_system": "BRCA1−/− RPE1 cells", "assay": "Clonogenic survival assay, RPE1 cells", "format": "cell-based", "settings": "FIGS. 6 and 7"}, "[7]": {"test_system": "PARP inhibitor (olaparib) resistant RPE1 cells", "assay": "PARP inhibitor (olaparib) resistant cell lines", "format": "cell-based", "settings": "FIG. 10"}, "[8]": {"test_system": "RAD51 foci", "assay": "RAD51 foci formation", "format": "cell-based", "settings": "FIG. 11"}, "[9]": {"test_system": "yH2AX foci", "assay": "yH2AX foci formation", "format": "cell-based", "settings": "FIG. 12"}, "[10]": {"test_system": "RPE1-p53−/− BRCA1−/− cells", "assay": "Apoptosis, Annexin V kit", "format": "cell-based", "settings": "FIG. 13, analyzed 4 days after NVB"}, "[11]": {"biological_target": "POLQ ATPase domain (Homo sapiens, UniProt O75417)", "sequence (O75417 102-554 limits assumed)": "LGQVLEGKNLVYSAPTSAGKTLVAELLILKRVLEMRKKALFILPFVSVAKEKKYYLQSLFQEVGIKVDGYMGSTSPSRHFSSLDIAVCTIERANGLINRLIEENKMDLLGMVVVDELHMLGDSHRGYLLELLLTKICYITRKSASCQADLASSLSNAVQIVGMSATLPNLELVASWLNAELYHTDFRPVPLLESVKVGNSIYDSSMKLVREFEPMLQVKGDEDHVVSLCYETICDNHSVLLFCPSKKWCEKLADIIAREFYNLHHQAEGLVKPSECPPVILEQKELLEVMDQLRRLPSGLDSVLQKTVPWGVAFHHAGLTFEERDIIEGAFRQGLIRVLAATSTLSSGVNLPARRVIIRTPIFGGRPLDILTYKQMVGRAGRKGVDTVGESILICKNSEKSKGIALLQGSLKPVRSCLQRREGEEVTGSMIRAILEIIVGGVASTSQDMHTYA", "assay": "Pull-down with novobiocin-conjugated sepharose beads, POLQ", "format": "binding", "settings": "FIG. 15; novobiocin conjugated to sepharose beads", "text": "FIG. 14 contains an image showing that novobiocin was successfully conjugated to sepharose beads.\nThe color in the left tube is attributed to the novobiocin bound to the beads."}}, "note": "Structures can show the parent of a compound that is named as a salt.", "data": [{"smiles": "O=C1c2c(O)ccc(O)c2C(=O)c2c(NCCNCCO)ccc(NCCNCCO)c21", "note": "[Mitoxantrone]", "values": [{"measurement": "inhibition of POLQ (ATPase) activity", "setting": "[1]", "result": "inhibited POLQ activity"}, {"measurement": "cell killing in the repair assay", "setting": "[2]; FIG. 8, 10 μM", "result": "kill cells"}, {"measurement": "cell killing in the repair assay", "setting": "[2]; FIG. 9, 50 μM", "result": "killed all cells"}]}, {"smiles": "O=C(c1cc(Cc2n[nH]c(=O)c3ccccc23)ccc1F)N1CCN(C(=O)C2CC2)CC1", "note": "[olaparib]", "values": [{"measurement": "selective killing of BRCA1-deficient (HR-deficient) tumor cells", "setting": "[3]; FIG. 3", "result": "selectively kills BRCA1-deficient (HR-deficient) tumor cells"}]}, {"smiles": "CO[C@@H]1[C@@H](OC(N)=O)[C@@H](O)[C@H](Oc2ccc3c(O)c(NC(=O)c4ccc(O)c(CC=C(C)C)c4)c(=O)oc3c2C)OC1(C)C", "note": "[novobiocin]", "values": [{"measurement": "inhibition of POLQ (ATPase) activity", "setting": "[1]; listed as N", "result": "inhibited POLQ activity"}, {"measurement": "inhibition of POLQ (ATPase) activity", "setting": "[1]; listed as Novobiocin", "result": "inhibits the ATPase of POLQ"}, {"measurement": "specificity to POLQ", "setting": "[1]; FIG. 2C, SMARCAL1 used as control ATPase", "result": "showed some specificity to POLQ"}, {"measurement": "inhibition of ATPase activity of POLQ", "setting": "[1]; FIG. 5, 32P-based ATPase activity assay, 100 μM novobiocin", "result": "specifically inhibits ATPase activity of POLQ"}, {"measurement": "POLQ ATPase inhibition compared with related ATPases", "setting": "[1]; versus ATPase activity of SMARCA or CHD1", "result": "inhibits the POLQ ATPase more strongly than it inhibits the ATPase activity of SMARCA or CHD1"}, {"measurement": "inhibition of Alt-EJ", "setting": "[2]; FIG. 2D, EJ2 repair substrate GFP reporter", "result": "inhibited Alt-EJ"}, {"measurement": "inhibition of alternative end-joining", "setting": "[2]; FIG. 8, 10 μM", "result": "inhibits alternative end-joining"}, {"measurement": "inhibition of alternative end-joining", "setting": "[2]; FIG. 9, 50 μM", "result": "inhibits alternative end-joining"}, {"measurement": "inhibition of homologous recombination", "setting": "[4]; FIG. 8, 10 μM", "result": "not homologous recombination"}, {"measurement": "inhibition of homologous recombination", "setting": "[4]; FIG. 9, 50 μM", "result": "not homologous recombination"}, {"measurement": "selective killing of BRCA1-deficient (HR-deficient) tumor cells", "setting": "[3]; FIG. 3", "result": "selectively kills BRCA1-deficient (HR-deficient) tumor cells"}, {"measurement": "selective killing of BRCA1-deficient (HR-deficient) tumor cells", "setting": "[3]; FIG. 3, listed as Novobiocin", "result": "selectively kills HR-deficient cells as strongly as PARP inhibitor"}, {"measurement": "selective killing of BRCA1-deficient tumor cells", "setting": "[5]", "result": "selectively kills the BRCA1-deficient tumor cells"}, {"measurement": "selective killing of BRCA1-deficient tumor cells", "setting": "[5]; listed as Novobiocin", "result": "selectively kills BRCA1-deficient tumor cells"}, {"measurement": "specific killing of BRCA1−/− RPE1 cells", "setting": "[6]", "result": "specifically kills BRCA1−/− RPE1 cells"}, {"measurement": "killing of PARP inhibitor resistant RPE1 cells", "setting": "[7]", "result": "kills RPE1 cells that are resistant to the PARP inhibitor"}, {"measurement": "RAD51 foci formation", "setting": "[8]", "result": "induces RAD51 and yH2AX foci formation"}, {"measurement": "yH2AX foci formation", "setting": "[9]", "result": "induces RAD51 and yH2AX foci formation"}, {"measurement": "induction of apoptosis", "setting": "[10]", "result": "induces apoptosis specifically in RPE1-p53−/− BRCA1−/− cells"}, {"measurement": "binding / pull-down of POLQ ATPase domain", "setting": "[11]", "result": "specifically binds to POLQ ATPase domain"}]}, {"smiles": "Cc1ccc(C(=O)Nc2ccc(S(=O)(=O)O)c3cc(S(=O)(=O)O)cc(S(=O)(=O)O)c23)cc1NC(=O)c1cccc(NC(=O)Nc2cccc(C(=O)Nc3cc(C(=O)Nc4ccc(S(=O)(=O)O)c5cc(S(=O)(=O)O)cc(S(=O)(=O)O)c45)ccc3C)c2)c1", "note": "[S, Suramin sodium salt]", "values": [{"measurement": "inhibition of POLQ (ATPase) activity", "setting": "[1]", "result": "inhibited POLQ activity"}]}, {"smiles": "COc1cc2c(Nc3ccc(Br)cc3F)ncnc2cc1OCC1CCN(C)CC1", "note": "[VAND, vandetanib]", "values": [{"measurement": "cell killing in the repair assay", "setting": "[2]; FIG. 8, 10 μM", "result": "kill cells"}, {"measurement": "cell killing in the repair assay", "setting": "[2]; FIG. 9, 50 μM", "result": "killed all cells"}]}]}
